Experimental data from patent US8653046B2, “Controlling transgene expression across the skin” (ETH Zurich, priority 2009, dated 2014).

Assays:
[1] = biological target: T1, TtgA1 (TtgR-VP16) (Pseudomonas putida, UniProt Q9AIU0); experiment: Compatibility test: phloretin-responsive SEAP production of CHO-PEACE8; type: cell-based, Pseudomonas putida DOT-T1E; design: expressed in transfected cells; host or cells: CHO-K1 (transient pMG11 or pMG13); also HEK-293, BHK-21, COS-7, HaCaT, HT-1080, NIH/3T3, primary human fibroblasts and keratinocytes; settings: Phl 50 μM, 48 h, 100 = no inducer
T1 sequence (Q9AIU0 whole entry, added parts left off): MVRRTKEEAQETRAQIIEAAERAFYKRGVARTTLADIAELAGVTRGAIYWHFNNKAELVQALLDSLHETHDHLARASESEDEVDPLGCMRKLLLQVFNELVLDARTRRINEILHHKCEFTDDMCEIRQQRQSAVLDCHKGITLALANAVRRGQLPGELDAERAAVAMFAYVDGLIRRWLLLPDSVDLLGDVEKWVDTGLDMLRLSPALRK
Source text: (§1) To evaluate the functional compatibility of PEACE with the established tetracycline— [TETOFF; Gossen M., Bujard H., 1992, Proc Natl Acad Sci USA 89(12):5547-5551] and macrolide— [EOFF; Weber W., et al., 2002, Nat Biotechnol 20(9):901-907] responsive expression circuits CHO-PEACE8 is transiently transfected, transgenic for phloretin-responsive SEAP expression, with either the TETOFF-(pSAM200, PSV40-tTA-pA; pBP99, PhCMV*-1-SAMY-pA) or the EOFF-(PWW35, PSV40-ET1-pA; pBP100, PETR3-SAMY-pA) system set to control the Bacillus stearothermophilus-derived secreted α-amylase (SAMY) in response to tetracycline and erythromycin, respectively. SEAP and SAMY expression are scored 48 h after cultivation of the transfected populations in the presence (50 μM; 2 μg/mL) or absence of the inducer molecules (phloretin, tetracycline, erythromycin).
The stable CHO-PEACE8 cell line, transgenic for phloretin-controlled SEAP expression, is constructed in two steps: (i) CHO-K1 cells are co-transfected with pMG11 (PSV40-TtgA1-pA) and pSV2neo (Clontech, Cat. No. 6172-1) at a ratio of 20:1 and clonal selection results in the cell line CHO-TtgA. (ii) CHO-TtgA is co-transfected with pMG10 (PTtgR1-SEAP-pA) and pPur (Clontech, Cat. No. 6156-1) (ratio of 20:1) and the phloretin-responsive SEAP-producing double-transgenic cell line CHO-PEACE8 is chosen after clonal selection. […] Reversibility of phloretin-mediated SEAP production is assessed by cultivating CHO-PEACE8 (100,000 cells/mL) for 144 h while alternating phloretin concentrations from 0 to 50 μM every 48 h.

[2] = test system: macrolide-responsive control system (ET1, E-VP16; PETR3-SAMY-pA); experiment: Compatibility test: macrolide-responsive (EOFF) SAMY production in CHO-PEACE8 (pWW35, pBP100); type: cell-based; settings: CHO-PEACE8 transiently transfected with macrolide-responsive control system; Phl 50 μM, EM 2 μg/mL; 48 h; 100 = no inducer
Source text: as §1

[3] = biological target: T2, tetracycline-responsive control system (PSV40-tTA-pA; PhCMV*-1-SAMY-pA) (Escherichia coli, UniProt P04483); experiment: Compatibility test: tetracycline-responsive (TETOFF) SAMY production in CHO-PEACE8 (pSAM200, pBP99); type: cell-based; settings: CHO-PEACE8 transiently transfected with tetracycline-responsive control system; Phl 50 μM, Tet 2 μg/mL; 48 h; 100 = no inducer
T2 construct: expressed in transfected cells; host or cells: CHO-PEACE8 transiently transfected with pSAM200 and pBP99
T2 sequence (P04483 whole entry, added parts left off): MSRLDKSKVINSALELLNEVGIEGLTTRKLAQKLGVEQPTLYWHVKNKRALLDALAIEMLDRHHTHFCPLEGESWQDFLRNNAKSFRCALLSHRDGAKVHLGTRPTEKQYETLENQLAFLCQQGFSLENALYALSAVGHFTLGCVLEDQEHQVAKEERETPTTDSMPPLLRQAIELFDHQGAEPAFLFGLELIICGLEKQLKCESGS
Source text: as §1

[4] = biological target: T1, TtgA1 (TtgR-VP16); experiment: PEACE: SEAP expression after transient co-transfection of pMG10 (PTtgR1-SEAP-pA) and pMG11 (PSV40-TtgA1-pA); type: cell-based; settings: CHO-K1, 0, 25, 50 μM, 48 h
Source text: Living in the plant rhizosphere, Pseudomonas putida DOT-T1E has evolved resistance to a variety of plant-derived antimicrobials, which is triggered by phloretin-induced release of TtgR protein from the operator (OTtgR) of its target promoter and subsequent induction of a broadly specific TtgABC efflux pump (Teran W. et al., loc. cit.).
Three different transactivators are designed, harboring either the VP16 (TtgA1; pMG11, TtgR-VP16) (Triezenberg S. J. et al., loc. cit.), the p65 (TtgA2; pMG18, TtgR-p65) (Urlinger S., et al., 2000, Gene 247(1-2):103-110) or the human E2F4 (TtgA3; pMG19, TtgR-E2F4) (Akagi K., Kanai M., Saya H., Kozu T., Berns A., 2001, Nucleic Acids Res 29(4):e23) transactivation domains. pMG11, pMG18 or pMG19 are co-transfected with pMG10 (PTtgR1-SEAP-pA) into CHO-K1, HEK-293 as well as primary human fibroblasts and keratinocytes, and SEAP expression is profiled after 48 h of cultivation in the presence or absence of 50 μM phloretin.
(§2) CHO-K1 are transiently (co-)transfected with either pMG10 (PTtgR1-SEAP-pA) and pMG11 (PSV40-TtgA1-pA), to score regulation performance, or with pSEAP2-Control (PSV40-SEAP-pA), to assess compound-related cytotoxicity, and then cultivated for 48 h in medium containing different concentrations (0, 25, 50 μM) of specific flavonoid type compounds (berberine, butylparaben, genistein, luteolin, β-naphthol, naringenin, phloretin, phloridzin or quercetin) before SEAP production is profiled (FIG. 5A).
Wild-type Chinese hamster ovary cells (CHO-K1, ATCC: CCL-61) and their derivatives are cultivated in standard medium: ChoMaster® HTS (Cell Culture Technologies, Gravesano, Switzerland) supplemented with 5% (v/v) fetal calf serum (FCS, PAN Biotech GmbH, Aidenbach, Germany, Cat. No. 3302, Lot No. P251110) and 1% (v/v) penicillin/streptomycin solution (Sigma, St Louis, Mo., USA, Cat. No. P4458). Human embryonic kidney cells (HEK-293, Mitta B., et al., 2002, Nucleic Acids Res 30(21):e113), African green monkey kidney cells (COS-7, ATCC: CRL-1651), baby hamster kidney cells (BHK-21, ATCC: CCL10), human fibrosarcoma cells (HT-1080, ATCC: CCL-121), the human keratinocyte cell line HaCaT (Boukamp P., et al., 1988, J Cell Biol 106(3):761-771) and mouse fibroblasts (NIH/3T3, ATCC: CRL-1658) are cultured in Dulbecco's modified Eagle's medium (DMEM; Invitrogen, Cat. No. 52100-39) supplemented with 10% FCS (v/v) and 1% (v/v) penicillin/streptomycin solution. Primary human foreskin fibroblasts are cultivated in DMEM supplemented with 20% FCS (v/v) and 1% (v/v) penicillin/streptomycin solution and primary human foreskin keratinocytes are cultured in chemically defined serum-free keratinocyte medium (Invitrogen, Cat. No. 10744019). All cell types are cultivated at 37° C. in a 5% CO2-containing humidified atmosphere.

[5] = test system: CHO-K1; experiment: Toxicity of flavonoids: CHO-K1 transiently transfected with pSEAP2-Control, SEAP levels after 48 h; settings: 0, 25, 50 μM, genistein cytotoxic only at 50 μM
Procedure: (A) Toxicity of flavonoids. CHO-K1 are transiently transfected with pSEAP2-Control, and cultivated in medium supplemented with different flavonoids (0, 25, 50 μM). SEAP levels are scored after 48 h.
as §2
Wild-type Chinese hamster ovary cells (CHO-K1, ATCC: CCL-61) and their derivatives are cultivated in standard medium: ChoMaster® HTS (Cell Culture Technologies, Gravesano, Switzerland) supplemented with 5% (v/v) fetal calf serum (FCS, PAN Biotech GmbH, Aidenbach, Germany, Cat. No. 3302, Lot No. P251110) and 1% (v/v) penicillin/streptomycin solution (Sigma, St Louis, Mo., USA, Cat. No. P4458). Human embryonic kidney cells (HEK-293, Mitta B., et al., 2002, Nucleic Acids Res 30(21):e113), African green monkey kidney cells (COS-7, ATCC: CRL-1651), baby hamster kidney cells (BHK-21, ATCC: CCL10), human fibrosarcoma cells (HT-1080, ATCC: CCL-121), the human keratinocyte cell line HaCaT (Boukamp P., et al., 1988, J Cell Biol 106(3):761-771) and mouse fibroblasts (NIH/3T3, ATCC: CRL-1658) are cultured in Dulbecco's modified Eagle's medium (DMEM; Invitrogen, Cat. No. 52100-39) supplemented with 10% FCS (v/v) and 1% (v/v) penicillin/streptomycin solution. Primary human foreskin fibroblasts are cultivated in DMEM supplemented with 20% FCS (v/v) and 1% (v/v) penicillin/streptomycin solution and primary human foreskin keratinocytes are cultured in chemically defined serum-free keratinocyte medium (Invitrogen, Cat. No. 10744019). All cell types are cultivated at 37° C. in a 5% CO2-containing humidified atmosphere. For transient transfection of CHO-K1, 1 μg of total plasmid DNA (for co-transfection an equal amount of each plasmid) is transfected into 50,000 cells per well of a 24-well plate according to an optimized calcium phosphate protocol (Greber D., Fussenegger M., 2007, Biotechnol Bioeng 96(5):821-834). Plasmid DNA is diluted to a total volume of 25 μL 0.5 M CaCl2 solution, which is mixed with 25 μL 2×HBS solution (50 mM HEPES, 280 mM NaCl, 1.5 mM Na2HPO4, pH 7.1). After incubation for 15 min at room temperature, the precipitates are immediately added to the well and centrifuged onto the cells (5 min at 1,200×g) to increase transfection efficiency. After 3 h, the cells are treated with 0.5 mL glycerol solution (ChoMaster® HTS medium containing 15% glycerol) for 60 sec. After washing once with phosphate-buffered saline (PBS, Dulbecco's Phosphate-Buffered Saline; Invitrogen, Cat. No. 21600-0069), cells are cultivated in 0.5 mL standard ChoMaster® HTS medium in the presence or absence of different concentrations of phloretin. For transfection of BHK-21, COS-7 and HEK-293, plasmid DNA-Ca2PO4 precipitate is prepared and applied to the cells as described above. HEK-293 and COS-7 cells are washed once with PBS after 3 h incubation with the DNA-Ca2PO4 precipitate and subsequently cultivated in standard DMEM, while BHK-21 cells are incubated overnight with the precipitates and then cultivated in DMEM medium after being washed once with PBS. […]

Row | SMILES | PEACE regulation performance (SEAP production) [4] | compound-related cytotoxicity / cell viability [5] | other results
1 | CC[C@H]1OC(=O)[C@H](C)[C@@H](O[C@H]2C[C@@](C)(OC)[C@@H](O)[C@H](C)O2)[C@H](C)[C@@H](O[C@@H]2O[C@H](C)C[C@H](N(C)C)[C@H]2O)[C@](C)(O)C[C@@H](C)C(=O)[C@H](C)[C@@H](O)[C@]1(C)O [EM, erythromycin] | – | – | Relative SEAP Production (%) ([1]; CHO-PEACE8 transiently transfected with macrolide-responsive control system, EM 2 μg/mL): 102.7 ± 5.3%; Relative SAMY Production (%) [2]: 1.5 ± 1.8%
2 | CN(C)[C@@H]1C(O)=C(C(N)=O)C(=O)[C@@]2(O)C(O)=C3C(=O)c4c(O)cccc4[C@@](C)(O)[C@H]3C[C@@H]12 [Tet, tetracycline] | – | – | Relative SAMY Production (%) [3]: 3.0 ± 0.4%; Relative SEAP Production (%) ([1]; CHO-PEACE8 transiently transfected with tetracycline-responsive control system, Tet 2 μg/mL): 93.2 ± 3.8%
3 | COc1ccc2cc3[n+](cc2c1OC)CCc1cc2c(cc1-3)OCO2 [berberine] | fails to control PEACE | do not reduce cell viability | –
4 | CCCCOC(=O)c1ccc(O)cc1 [butylparaben, butyl 4-hydroxybenzoate] | able to regulate but not fully repress SEAP production | do not reduce cell viability | –
5 | O=c1c(-c2ccc(O)cc2)coc2cc(O)cc(O)c12 [genistein] | – | cytotoxic | –
6 | O=C1C[C@@H](c2ccc(O)cc2)Oc2cc(O)cc(O)c21 [naringenin] | – | cytotoxic | –
